{"source": "patent US20210401863A1", "about": "“TREATMENT AND PREVENTION OF NEISSERIA GONORRHOEAE INFECTION USING CMP-ACTIVATED NONULOSONATE ANALOG COMPOUNDS” (NATIONAL RESEARCH COUNCIL OF CANADA, priority 2015, published 2021)", "key": {"purified human FH": {"system": "purified human FH", "test": "Factor H (FH) binding to gonococci by flow cytometry", "format": "cell-based", "details": "F62 ΔlgtD grown with 20 μg/mL CMP-NulO, human FH 20 μg/mL", "description": "FIG. 1: CMP-KDN serves as a substrate for gonococcal LOS and incorporation of KDN on gonococcal lacto-N-neotetraose LOS enhances factor H (FH) binding. A. Incorporation of KDN by gonococci. Gonococcal strain F62 ΔlgtD (expresses lacto-N-neotetraose (LNnT) from Hepl) was grown in media containing CMP-KDN (20 μg/mL) and binding of mAb 3F11 was measured by flow cytometry. mAb 3F11 binds only to […] LNnT; substitution of the terminal Gal of LNnT, for example with a NulO, will decrease mAb 3F11 binding. Approximately 5×10^7 bacteria were incubated with mAb 3F11 tissue culture supernatants for 15 minutes at 37° C. Binding of mAb 3F11 was disclosed with anti-mouse IgM FITC (Sigma; dilution of 1:100). Bacteria grown in CMP-Neu5Ac or in media alone were used as positive and negative controls for sialylation, respectively. A representative histogram is shown in the upper panel. […] B. Factor H (FH) binding to gonococci grown in CMP-KDN. Approximately 5×10^7 bacteria grown in media alone (no sialic acid), media plus CMP-Neu5Ac (20 μg/mL; positive control for FH binding) or in media containing CMP-KDN (20 μg/mL) were incubated with purified human FH (20 μg/mL) in HBSS** for 15 minutes at 37° C. and bound FH was detected with affinity isolated goat anti-human FH followed by anti-goat IgG FITC (Sigma; 1:100 dilution). A representative histogram is shown in the upper panel. […]"}, "N. gonorrhoeae F62 ΔlgtD": {"system": "N. gonorrhoeae F62 ΔlgtD", "format": "cell-based, Neisseria gonorrhoeae", "description": "Generally, bacteria (F62 ΔlgtD) grown overnight on chocolate agar plates were suspended in gonococcal liquid media supplemented with IsoVitaleX [29] that contained specified concentrations of the CMP-nonulosonate. Bacteria were then incubated at 37° C. for the period specified in each experiment.\nSerum bactericidal assays were performed as follows, similar to methods outlined in [32,33] and in U.S. Pat. No. 9,765,106. Bacteria were harvested from an overnight culture on chocolate agar plates and ˜10^5 CFU of Ng were grown in liquid media containing the concentrations of CMP-NuIO as specified for each experiment. Bacteria were diluted in Morse A and ˜2000 CFU of Ng F62 ΔlgtD were incubated with NHS (concentration specified for each experiment). The final reaction volumes were maintained at 150 μL. Aliquots of 25 μL of reaction mixtures were plated onto chocolate agar in duplicate at the beginning of the assay (t0) and again after incubation at 37° C. for 30 minutes (t30). Survival was calculated as the number of viable colonies at t30 relative to t0.\nAddition of a terminal Neu5Ac residue to the LNnT LOS of N. gonorrhoeae that occurs in vivo or following the addition of CMP-Neu5Ac to growth media results in resistance to complement-dependent killing. We next determined the effects of LNnT incorporation of KDN on the ability of N. gonorrhoeae F62 ΔlgtD to resist complement-dependent killing by normal human sera at concentrations of 3.3% or 10%. Bacteria were grown either in media alone, or media supplemented with 20 μg/mL of CMP-Neu5Ac or CMP-KDN. In addition, CMP-NulO competition experiments were also performed with CMP-Neu5Ac, CMP-Leg5Ac7Ac and CMP-KDN at CMP-NulO concentrations of either 20 μg/mL or 2 μg/mL as indicated, where the second CMP-NulO was added 15 minutes after the first (Table 1 below). To note, these CMP-NulO competition experiments are a method to examine the ability of select CMP-NulOs to counter the enhanced serum resistance due to CMP-Neu5Ac addition, providing information on their therapeutic potential (as any potential therapeutic will be required to compete with CMP-Neu5Ac in vivo)."}, "[1]": {"biological_target": "T1, gonococcal LOS sialyltransferase (Lst) (Neisseria gonorrhoeae, UniProt P72074)", "T1 construct": "CMP-KDN served as a substrate for gonococcal Lst in the context of live bacteria; endogenous in cells; host or cells: N. gonorrhoeae F62 ΔlgtD (live bacteria)", "T1 sequence (P72074 whole entry)": "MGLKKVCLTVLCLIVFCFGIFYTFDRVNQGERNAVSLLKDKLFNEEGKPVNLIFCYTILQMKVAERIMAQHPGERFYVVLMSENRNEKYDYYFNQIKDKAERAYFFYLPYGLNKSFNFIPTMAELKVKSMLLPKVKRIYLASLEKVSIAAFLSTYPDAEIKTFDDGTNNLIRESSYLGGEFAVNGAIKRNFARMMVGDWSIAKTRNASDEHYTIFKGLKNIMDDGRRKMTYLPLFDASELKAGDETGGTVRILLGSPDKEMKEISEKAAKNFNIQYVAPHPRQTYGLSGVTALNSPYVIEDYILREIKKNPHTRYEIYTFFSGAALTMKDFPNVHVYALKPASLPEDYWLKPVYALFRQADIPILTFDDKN", "test": "mAb 3F11 binding by flow cytometry (incorporation of NulO on LNnT LOS by Lst)", "format": "cell-based, N. gonorrhoeae F62 ΔlgtD", "details": "F62 ΔlgtD grown in media with 20 μg/mL CMP-NulO", "description": "FIG. 1: CMP-KDN serves as a substrate for gonococcal LOS and incorporation of KDN on gonococcal lacto-N-neotetraose LOS enhances factor H (FH) binding. A. Incorporation of KDN by gonococci. Gonococcal strain F62 ΔlgtD (expresses lacto-N-neotetraose (LNnT) from Hepl) was grown in media containing CMP-KDN (20 μg/mL) and binding of mAb 3F11 was measured by flow cytometry. mAb 3F11 binds only to […] LNnT; substitution of the terminal Gal of LNnT, for example with a NulO, will decrease mAb 3F11 binding. Approximately 5×10^7 bacteria were incubated with mAb 3F11 tissue culture supernatants for 15 minutes at 37° C. Binding of mAb 3F11 was disclosed with anti-mouse IgM FITC (Sigma; dilution of 1:100). Bacteria grown in CMP-Neu5Ac or in media alone were used as positive and negative controls for sialylation, respectively. A representative histogram is shown in the upper panel. […] B. Factor H (FH) binding to gonococci grown in CMP-KDN. Approximately 5×10^7 bacteria grown in media alone (no sialic acid), media plus CMP-Neu5Ac (20 μg/mL; positive control for FH binding) or in media containing CMP-KDN (20 μg/mL) were incubated with purified human FH (20 μg/mL) in HBSS** for 15 minutes at 37° C. and bound FH was detected with affinity isolated goat anti-human FH followed by anti-goat IgG FITC (Sigma; 1:100 dilution). A representative histogram is shown in the upper panel.\nFIG. 3: CMP-KDN7N3 serves as a substrate for gonococcal Lst resulting in incorporation of KDN7N3 on gonococcal lacto-N-neotetraose (LNnT) LOS—Incorporation of KDN7N3 by gonococci. Gonococcal strain F62ΔlgtD (expresses lacto-N-neotetraose (LNnT) from Hepl) was grown in media containing CMP-KDN7N3 (20 μg/mL) and binding of mAb 3F11 was measured by flow cytometry. mAb 3F11 binds only to […] LNnT; substitution of the terminal Gal of LNnT, for example with a NulO, will decrease mAb 3F11 binding. Approximately 5×10^7 bacteria were incubated with mAb 3F11 tissue culture supernatants for 15 minutes at 37° C. Binding of mAb 3F11 was disclosed with anti-mouse IgM FITC (Sigma; dilution of 1:100). […]"}}, "note": "Like-named read-outs stand apart in the source and are kept apart here."}
{"molecule": "CC(=O)N[C@H]1[C@H]([C@H](O)[C@H](O)CO)O[C@](OP(=O)(O)OC[C@H]2O[C@@H](n3ccc(N)nc3=O)[C@H](O)[C@@H]2O)(C(=O)O)C[C@@H]1O", "note": "[CMP-Neu5Ac]", "values": [{"measurement": "fH binding to bacteria", "setting": "purified human FH", "result": "Maximal fH binding"}, {"measurement": "% survival in 10% serum", "setting": "N. gonorrhoeae F62 ΔlgtD; Table 1, CMP-NulO 20 μg/mL alone", "result": 115, "unit": "%"}, {"measurement": "% survival in 3.3% serum", "setting": "N. gonorrhoeae F62 ΔlgtD; Table 5, CMP-NulO 20 μg/mL, 3.3% serum", "result": 133.03, "unit": "%"}, {"measurement": "% survival in 10% serum", "setting": "N. gonorrhoeae F62 ΔlgtD; Table 5, CMP-NulO 20 μg/mL", "result": 129.02, "unit": "%"}, {"measurement": "binding of mAb 3F11 (use as substrate by gonococcal Lst)", "setting": "[1]", "result": "decreased binding of mAb 3F11 similarly"}]}
